{"source": "patent US8957013B2", "about": "(priority 2007, dated 2015)", "format": "binding", "data": [{"sequence": "HPNFSKYILHQR", "values": [{"measurement": "selectivity for DNT over TNT target", "result": "selective for the DNT target"}]}]}
